In the supplement of paper PMC10307832:

Columns and labels:
Test in all cases: relative viability (nuclei count vs DMSO), 5 days (fraction); higher = more cells survive
HCC-15 = system: HCC-15
Method in brief: (§1)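 Lung cancer cell lines, seeded in 1536-well plates, were treated the following day by pin tool with a single drug or with five library-drug doses (not always all listed) in √10 steps on top of a fixed anchor-drug dose. Cells were fixed and nuclei stained in one step after 5 days, and nuclei were counted. Relative viability is the nuclei count for treated wells divided by that for vehicle wells, reported as medians of duplicate plates.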

COR-L 105 = system: COR-L 105
Method in brief: as §1

HCC-366 = system: HCC-366
Method in brief: as §1

EKVX = system: EKVX
Method in brief: as §1

NCI-H1975 = system: NCI-H1975
Method in brief: as §1

LXF-289 = system: LXF-289
Method in brief: as §1

BEN = system: BEN
Method in brief: as §1

NCI-H1755 = system: NCI-H1755
Method in brief: as §1

HARA = system: HARA
Method in brief: as §1

201T = system: 201T
Method in brief: as §1

NCI-H1703 = system: NCI-H1703
Method in brief: as §1

LU99A = system: LU99A
Method in brief: as §1

NCI-H1734 = system: NCI-H1734
Method in brief: as §1

NCI-H1993 = system: NCI-H1993
Method in brief: as §1

NCI-H1650 = system: NCI-H1650
Method in brief: as §1

HCC-78 = system: HCC-78
Method in brief: as §1

SK-LU-1 = system: SK-LU-1
Method in brief: as §1

COR-L23 = system: COR-L23
Method in brief: as §1

HCC-827 = system: HCC-827
Method in brief: as §1

NCI-H3122 = system: NCI-H3122
Method in brief: as §1

NCI-H596 = system: NCI-H596
Method in brief: as §1

NCI-H1944 = system: NCI-H1944
Method in brief: as §1

CCCCCCCCCCCC1=C(O)C(=O)C=C(O)C1=O [Embelin] + CC(C)C[C@H](NC(=O)[C@H](Cc1ccccc1)NC(=O)c1cnccn1)B(O)O [Bortezomib] (partner 0.002 µM)
relative viability (HCC-15; first compound 0.08 µM): 1.07
relative viability (HCC-15; first compound 0.8 µM): 1.02
relative viability (HCC-15; first compound 2.53 µM): 1.18
relative viability (HCC-15; first compound 8 µM): 1.11
relative viability (COR-L 105; first compound 0.08 µM): 0.81
relative viability (COR-L 105; first compound 0.8 µM): 0.901
relative viability (COR-L 105; first compound 2.53 µM): 0.765
relative viability (COR-L 105; first compound 8 µM): 0.961
relative viability (HCC-366; first compound 0.08 µM): 1.05
relative viability (HCC-366; first compound 0.8 µM): 1.05
relative viability (HCC-366; first compound 2.53 µM): 1.43
relative viability (HCC-366; first compound 8 µM): 1.1
relative viability (EKVX; first compound 0.08 µM): 0.976
relative viability (EKVX; first compound 0.8 µM): 0.936
relative viability (EKVX; first compound 2.53 µM): 1.14
relative viability (EKVX; first compound 8 µM): 1.13
relative viability (NCI-H1975; first compound 0.08 µM): 0.45
relative viability (NCI-H1975; first compound 0.8 µM): 0.432
relative viability (NCI-H1975; first compound 2.53 µM): 0.372
relative viability (NCI-H1975; first compound 8 µM): 0.367
relative viability (LXF-289; first compound 0.08 µM): 1.01
relative viability (LXF-289; first compound 0.8 µM): 1
relative viability (LXF-289; first compound 2.53 µM): 1
relative viability (LXF-289; first compound 8 µM): 1.05
relative viability (BEN; first compound 0.08 µM): 0.85
relative viability (BEN; first compound 0.8 µM): 1.04
relative viability (BEN; first compound 2.53 µM): 0.941
relative viability (BEN; first compound 8 µM): 0.899
relative viability (NCI-H1755; first compound 0.08 µM): 0.987
relative viability (NCI-H1755; first compound 0.8 µM): 1.07
relative viability (NCI-H1755; first compound 2.53 µM): 0.971
relative viability (NCI-H1755; first compound 8 µM): 0.917
relative viability (HARA; first compound 0.08 µM): 1.05
relative viability (HARA; first compound 0.8 µM): 1.25
relative viability (HARA; first compound 2.53 µM): 1.13
relative viability (HARA; first compound 8 µM): 1.26
relative viability (201T; first compound 0.08 µM): 1.06
relative viability (201T; first compound 0.8 µM): 1.17
relative viability (201T; first compound 2.53 µM): 1.09
relative viability (201T; first compound 8 µM): 1.09
relative viability (NCI-H1703; first compound 0.08 µM): 0.26
relative viability (NCI-H1703; first compound 0.8 µM): 0.549
relative viability (NCI-H1703; first compound 2.53 µM): 0.361
relative viability (NCI-H1703; first compound 8 µM): 0.236
relative viability (LU99A; first compound 0.08 µM): 1.37
relative viability (LU99A; first compound 0.8 µM): 1.23
relative viability (LU99A; first compound 2.53 µM): 1.1
relative viability (LU99A; first compound 8 µM): 1.07
relative viability (NCI-H1734; first compound 0.08 µM): 0.882
relative viability (NCI-H1734; first compound 0.8 µM): 1.35
relative viability (NCI-H1734; first compound 2.53 µM): 1.14
relative viability (NCI-H1734; first compound 8 µM): 0.944
relative viability (NCI-H1993; first compound 0.08 µM): 1.16
relative viability (NCI-H1993; first compound 0.8 µM): 1.14
relative viability (NCI-H1993; first compound 2.53 µM): 1.22
relative viability (NCI-H1993; first compound 8 µM): 1.08
relative viability (NCI-H1650; first compound 0.08 µM): 0.191
relative viability (NCI-H1650; first compound 0.8 µM): 0.189
relative viability (NCI-H1650; first compound 2.53 µM): 0.203
relative viability (NCI-H1650; first compound 8 µM): 0.213
relative viability (HCC-78; first compound 0.08 µM): 0.605
relative viability (HCC-78; first compound 0.8 µM): 0.532
relative viability (HCC-78; first compound 2.53 µM): 0.555
relative viability (HCC-78; first compound 8 µM): 0.438
relative viability (SK-LU-1; first compound 0.08 µM): 1.23
relative viability (SK-LU-1; first compound 0.8 µM): 1.95
relative viability (SK-LU-1; first compound 2.53 µM): 0.982
relative viability (SK-LU-1; first compound 8 µM): 0.929
relative viability (COR-L23; first compound 0.08 µM): 1
relative viability (COR-L23; first compound 0.8 µM): 1.1
relative viability (COR-L23; first compound 2.53 µM): 1.21
relative viability (COR-L23; first compound 8 µM): 1.21
relative viability (HCC-827; first compound 0.08 µM): 1.12
relative viability (HCC-827; first compound 0.8 µM): 1.07
relative viability (HCC-827; first compound 2.53 µM): 1.06
relative viability (HCC-827; first compound 8 µM): 1.17
relative viability (NCI-H3122; first compound 0.08 µM): 0.978
relative viability (NCI-H3122; first compound 0.8 µM): 1.03
relative viability (NCI-H3122; first compound 2.53 µM): 0.916
relative viability (NCI-H3122; first compound 8 µM): 0.992
relative viability (NCI-H596; first compound 0.08 µM): 0.955
relative viability (NCI-H596; first compound 0.8 µM): 1.17
relative viability (NCI-H596; first compound 2.53 µM): 1.3
relative viability (NCI-H596; first compound 8 µM): 0.87

CCCCCCCCCCCC1=C(O)C(=O)C=C(O)C1=O [Embelin] + CS(=O)(=O)CCNCc1ccc(-c2ccc3ncnc(Nc4ccc(OCc5cccc(F)c5)c(Cl)c4)c3c2)o1 [Lapatinib] (partner 2 µM)
relative viability (HCC-15; first compound 0.08 µM): 0.835
relative viability (HCC-15; first compound 0.8 µM): 0.92
relative viability (HCC-15; first compound 2.53 µM): 0.944
relative viability (HCC-15; first compound 8 µM): 0.795
relative viability (COR-L 105; first compound 0.08 µM): 0.356
relative viability (COR-L 105; first compound 0.8 µM): 0.436
relative viability (COR-L 105; first compound 2.53 µM): 0.384
relative viability (COR-L 105; first compound 8 µM): 0.391
relative viability (HCC-366; first compound 0.08 µM): 1.08
relative viability (HCC-366; first compound 0.8 µM): 1.11
relative viability (HCC-366; first compound 2.53 µM): 1.21
relative viability (HCC-366; first compound 8 µM): 1.32
relative viability (EKVX; first compound 0.08 µM): 0.197
relative viability (EKVX; first compound 0.8 µM): 0.528
relative viability (EKVX; first compound 2.53 µM): 0.215
relative viability (EKVX; first compound 8 µM): 0.211
relative viability (NCI-H1975; first compound 0.08 µM): 0.807
relative viability (NCI-H1975; first compound 0.8 µM): 0.951
relative viability (NCI-H1975; first compound 2.53 µM): 1.09
relative viability (NCI-H1975; first compound 8 µM): 0.872
relative viability (LXF-289; first compound 0.08 µM): 0.961
relative viability (LXF-289; first compound 0.8 µM): 0.882
relative viability (LXF-289; first compound 2.53 µM): 0.978
relative viability (LXF-289; first compound 8 µM): 0.936
relative viability (BEN; first compound 0.08 µM): 0.697
relative viability (BEN; first compound 0.8 µM): 0.887
relative viability (BEN; first compound 2.53 µM): 0.805
relative viability (BEN; first compound 8 µM): 0.73
relative viability (NCI-H1755; first compound 0.08 µM): 1.03
relative viability (NCI-H1755; first compound 0.8 µM): 1.04
relative viability (NCI-H1755; first compound 2.53 µM): 1.06
relative viability (NCI-H1755; first compound 8 µM): 0.97
relative viability (HARA; first compound 0.08 µM): 0.665
relative viability (HARA; first compound 0.8 µM): 0.961
relative viability (HARA; first compound 2.53 µM): 0.895
relative viability (HARA; first compound 8 µM): 0.755
relative viability (201T; first compound 0.08 µM): 1.03
relative viability (201T; first compound 0.8 µM): 1.04
relative viability (201T; first compound 2.53 µM): 1
relative viability (201T; first compound 8 µM): 0.99
relative viability (NCI-H1703; first compound 0.08 µM): 1.2
relative viability (NCI-H1703; first compound 0.8 µM): 1.6
relative viability (NCI-H1703; first compound 2.53 µM): 1.02
relative viability (NCI-H1703; first compound 8 µM): 1.23
relative viability (LU99A; first compound 0.08 µM): 0.999
relative viability (LU99A; first compound 0.8 µM): 0.991
relative viability (LU99A; first compound 2.53 µM): 1.12
relative viability (LU99A; first compound 8 µM): 0.855
relative viability (NCI-H1734; first compound 0.08 µM): 0.963
relative viability (NCI-H1734; first compound 0.8 µM): 1.28
relative viability (NCI-H1734; first compound 2.53 µM): 1.26
relative viability (NCI-H1734; first compound 8 µM): 1.12
relative viability (NCI-H1993; first compound 0.08 µM): 0.845
relative viability (NCI-H1993; first compound 0.8 µM): 0.777
relative viability (NCI-H1993; first compound 2.53 µM): 0.803
relative viability (NCI-H1993; first compound 8 µM): 0.834
relative viability (NCI-H1650; first compound 0.08 µM): 0.762
relative viability (NCI-H1650; first compound 0.8 µM): 0.931
relative viability (NCI-H1650; first compound 2.53 µM): 0.74
relative viability (NCI-H1650; first compound 8 µM): 0.712
relative viability (HCC-78; first compound 0.08 µM): 0.767
relative viability (HCC-78; first compound 0.8 µM): 0.703
relative viability (HCC-78; first compound 2.53 µM): 0.796
relative viability (HCC-78; first compound 8 µM): 0.616
relative viability (SK-LU-1; first compound 0.08 µM): 1
relative viability (SK-LU-1; first compound 0.8 µM): 1.15
relative viability (SK-LU-1; first compound 2.53 µM): 0.9
relative viability (SK-LU-1; first compound 8 µM): 0.863
relative viability (COR-L23; first compound 0.08 µM): 0.927
relative viability (COR-L23; first compound 0.8 µM): 0.966
relative viability (COR-L23; first compound 2.53 µM): 1.34
relative viability (COR-L23; first compound 8 µM): 1.09
relative viability (NCI-H1944; first compound 0.08 µM): 0.774
relative viability (NCI-H1944; first compound 0.8 µM): 0.908
relative viability (NCI-H1944; first compound 2.53 µM): 0.841
relative viability (NCI-H1944; first compound 8 µM): 0.65
relative viability (HCC-827; first compound 0.08 µM): 0.157
relative viability (HCC-827; first compound 0.8 µM): 0.176
relative viability (HCC-827; first compound 2.53 µM): 0.179
relative viability (HCC-827; first compound 8 µM): 0.197
relative viability (NCI-H3122; first compound 0.08 µM): 1.02
relative viability (NCI-H3122; first compound 0.8 µM): 0.977
relative viability (NCI-H3122; first compound 2.53 µM): 0.956
relative viability (NCI-H3122; first compound 8 µM): 1.09
relative viability (NCI-H596; first compound 0.08 µM): 1.17
relative viability (NCI-H596; first compound 0.8 µM): 1.07
relative viability (NCI-H596; first compound 2.53 µM): 1.12
relative viability (NCI-H596; first compound 8 µM): 1.17
